Experimental data: patent publication US20230183193A1, “4-DIFLUOROMETHYL BENZOYL AMIDES WITH HERBICIDAL ACTION” (BAYER CROPSCIENCE AKTIENGESELLSCHAFT, priority 2017, published 2023)

Key:
Assay type in all cases: in vivo
Abutilon theophrasti [1] = test: Pre-emergence herbicidal action, ABUTH; details: dosage 320 g/ha, scored visually after 3 weeks vs untreated controls
How it was run: (§1)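 Weed seeds were laid out in sandy loam and covered with soil, then the soil surface was treated with an aqueous suspension or emulsion of the formulated compound containing 0.2% wetting agent. Pots stayed in the greenhouse for 3 weeks before damage was rated visually against untreated plants.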

Alopecurus myosuroides [2] = test: Pre-emergence herbicidal action, ALOMY; details: dosage 320 g/ha, scored visually after 3 weeks vs untreated controls
How it was run: as §1

Amaranthus retroflexus [3] = test: Pre-emergence herbicidal action, AMARE; details: dosage 320 g/ha, scored visually after 3 weeks vs untreated controls
How it was run: as §1

Avena fatua [4] = test: Pre-emergence herbicidal action, AVEFA; details: dosage 320 g/ha, scored visually after 3 weeks vs untreated controls
How it was run: as §1

Cyperus serotinus = test: Pre-emergence herbicidal action, CYPES; details: dosage 320 g/ha, scored visually after 3 weeks vs untreated controls
How it was run: as §1

Matricaria inodora = test: Pre-emergence herbicidal action, MATIN; details: dosage 320 g/ha, scored visually after 3 weeks vs untreated controls
How it was run: as §1

Setaria viridis [5] = test: Pre-emergence herbicidal action, SETVI; details: dosage 320 g/ha, scored visually after 3 weeks vs untreated controls
How it was run: as §1

Stellaria media [6] = test: Pre-emergence herbicidal action, STEME; details: dosage 320 g/ha, scored visually after 3 weeks vs untreated controls
How it was run: as §1

Viola tricolor [7] = test: Pre-emergence herbicidal action, VIOTR; details: dosage 320 g/ha, scored visually after 3 weeks vs untreated controls
How it was run: as §1

Abutilon theophrasti [8] = test: Post-emergence herbicidal action, ABUTH; details: 80 g/ha, Table D
How it was run: (§2)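 Post-emergence spray; one-leaf stage (2–3 wk after sowing), sandy loam, greenhouse. WP/EC in water, 600 to […], +0.2% wetting agent. Visual % damage vs untreated at ~3 wk; 100% = plants dead.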

Alopecurus myosuroides [9] = test: Post-emergence herbicidal action, ALOMY; details: 80 g/ha, Table C
How it was run: as §2

Amaranthus retroflexus [10] = test: Post-emergence herbicidal action, AMARE; details: 80 g/ha, Table D
How it was run: as §2

Avena fatua [11] = test: Post-emergence herbicidal action, AVEFA; details: 80 g/ha, Table C
How it was run: as §2

Pharbitis purpureum = test: Post-emergence herbicidal action, PHBPU; details: 80 g/ha, Table D
How it was run: as §2

Setaria viridis [12] = test: Post-emergence herbicidal action, SETVI; details: 80 g/ha, Table C
How it was run: as §2

Stellaria media [13] = test: Post-emergence herbicidal action, STEME; details: 80 g/ha, Table D
How it was run: as §2

Viola tricolor [14] = test: Post-emergence herbicidal action, VIOTR; details: 80 g/ha, Table D
How it was run: as §2

ECHCG = test: Post-emergence herbicidal action, ECHCG; details: 80 g/ha, Table C
How it was run: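 Weed and crop plants grown in sandy loam in the greenhouse, treated at the one-leaf stage 2–3 weeks after sowing. Damage scored visually after about 3 weeks vs untreated controls (0% = control, 100% = dead).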

Compound	herbicidal activity ABUTH (Abutilon theophrasti [1]) [%]	herbicidal activity ALOMY (Alopecurus myosuroides [2]) [%]	herbicidal activity AMARE (Amaranthus retroflexus [3]) [%]	herbicidal activity AVEFA (Avena fatua [4]) [%]	herbicidal activity CYPES (Cyperus serotinus) [%]	herbicidal activity MATIN (Matricaria inodora) [%]	herbicidal activity SETVI (Setaria viridis [5]) [%]	Herbicidal activity STEME (Stellaria media [6]) [%]	herbicidal activity VIOTR (Viola tricolor [7]) [%]	herbicidal activity ABUTH (Abutilon theophrasti [8]) [%]	herbicidal activity ALOMY (Alopecurus myosuroides [9]) [%]	herbicidal activity AMARE (Amaranthus retroflexus [10]) [%]	herbicidal activity AVEFA (Avena fatua [11]) [%]	Herbicidal activity PHBPU (Pharbitis purpureum) [%]	herbicidal activity SETVI (Setaria viridis [12]) [%]	Herbicidal activity STEME (Stellaria media [13]) [%]	herbicidal activity VIOTR (Viola tricolor [14]) [%]	Herbicidal activity ECHCG (ECHCG) [%]
CCc1c(C(=O)Nc2nnc(C)o2)ccc(C(F)F)c1[S+](C)[O-] (stereo not drawn) [Example 7-12]	100	100	100	100	100	100	100	100	100	100	90	100	90	90	90	100	100	100
CCc1c(C(=O)Nc2nnc(C)o2)ccc(C(F)F)c1S(C)(=O)=O [Example 7-13]	100	100	100	100	100	100	100	100	100	100	90	100	100	100	100	100	100	100
CCSc1c(C(F)F)ccc(C(=O)Nc2nnc(C)o2)c1CC [Example 7-14]	100	100	100	100	100	90	100	100	100	100	90	100	100	90	90	100	100	90
CCc1c(C(=O)Nc2nnc(C)o2)ccc(C(F)F)c1[S+]([O-])CC (stereo not drawn) [Example 7-15]	100	100	100	100	100	100	100	100	100	100	90	100	100	90	100	100	100	90
CCc1c(C(=O)Nc2nnc(C)o2)ccc(C(F)F)c1S(=O)(=O)CC [Example 7-16]	100	100	100	100	100	100	100	100	100	100	90	100	90	90	100	100	100	90
CSc1c(C(F)F)ccc(C(=O)Nc2nnc(C)o2)c1Cl [Example 7-47]	100	90	100	90	80	100	100	90	100	90	80	90	100	90	100	100	100	100
CCSc1c(C(F)F)ccc(C(=O)Nc2nnc(C)o2)c1Br [Example 7-62]	100	100	100	90	80	90	100	100	100	100	90	100	100	90	100	100	100	100
CC[S+]([O-])c1c(C(F)F)ccc(C(=O)Nc2nnc(C)o2)c1I (stereo not drawn) [Example 7-75]	100	100	100	100	100	100	100	100	100	90	80	100	100	80	90	80	100	100
